According to PubChem BioAssay (NCI):
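Tested at 5 concentrations; 48 h exposure; 96-well plates; endpoints linearly interpolated, else capped at highest concentration. Abbreviation: GI50, concentration required for 50% inhibition of growth. TGI: concentration producing complete growth inhibition.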

Tests used:
Test in all cases: inhibition of tumour cell growth, NCI panel, 48 h
[1] = system: 786-0 renal
[2] = system: A498 renal
[3] = system: A549 NSCLC
[4] = system: ACHN renal
[5] = system: CAKI-1 renal
[6] = system: CCRF-CEM leukemia
[7] = system: COLO 205 colon
[8] = system: DU-145 prostate
[9] = system: EKVX NSCLC
[10] = system: HCC-2998 colon
[11] = system: HCT-116 colon
[12] = system: HCT-15 colon
[13] = system: HL-60(TB) leukemia
[14] = system: HOP-62 NSCLC
[15] = system: HOP-92 NSCLC
[16] = system: HS 578T breast
[17] = system: HT29 colon
[18] = system: IGROV1 ovarian
[19] = system: K-562 leukemia
[20] = system: KM12 colon
[21] = system: LOX IMVI melanoma
[22] = system: M14 melanoma
[23] = system: MALME-3M melanoma
[24] = system: MCF7 breast
[25] = system: MDA-MB-231 breast
[26] = system: MDA-MB-435
[27] = system: MDA-N
[28] = system: MOLT-4 leukemia
[29] = system: NCI-H226 lung
[30] = system: NCI-H23 lung
[31] = system: NCI-H460 lung
[32] = system: NCI-H522 lung
[33] = system: NCI/ADR-RES ovarian
[34] = system: OVCAR-3 ovarian
[35] = system: OVCAR-4 ovarian
[36] = system: OVCAR-5 ovarian
[37] = system: OVCAR-8 ovarian
[38] = system: PC-3 prostate
[39] = system: RPMI-8226 leukemia
[40] = system: RXF 393 renal
[41] = system: SF-268 CNS
[42] = system: SF-295 CNS
[43] = system: SF-539 CNS
[44] = system: SK-MEL-2 melanoma
[45] = system: SK-MEL-28 melanoma
[46] = system: SK-MEL-5 melanoma
[47] = system: SK-OV-3 ovarian
[48] = system: SN12C renal
[49] = system: SNB-19 CNS
[50] = system: SNB-75 CNS
[51] = system: SR leukemia
[52] = system: SW-620 colon
[53] = system: T-47D breast
[54] = system: TK-10 renal
[55] = system: U251 CNS
[56] = system: UACC-257 melanoma
[57] = system: UACC-62 melanoma
[58] = system: UO-31 renal
[59] = system: BT-549 breast

With `CC(C)=Cc1cc2c(cc1O)CCC1C2CC[C@@]2(C)C1CC[C@@H]2O` (stereo not given in full) the TGI [1] was 25 µM, the TGI [2] was 29.9 µM and the TGI [3] was 27.5 µM. It also gave a TGI [4] of 29.5 µM, a TGI [5] of 29.5 µM and a TGI [6] of 40.8 µM. It also gave a TGI [7] of 32.7 µM, a TGI [8] of 27.7 µM and a TGI [9] of 31.5 µM. It also gave a TGI [10] of 31.8 µM, a TGI [11] of 23.4 µM and a TGI [12] of 24.4 µM. It also gave a TGI [13] of 37.5 µM, a GI50 [14] of 15 µM and a TGI [14] of 31.7 µM. It also gave a TGI [15] of 42.1 µM, a TGI [16] of 65.6 µM and a TGI [17] of 30.8 µM. It also gave a TGI [18] of 29.9 µM, a TGI [19] of 13.8 µM and a TGI [20] of 25.3 µM. The TGI [21] was 16.1 µM, the TGI [22] was 22.8 µM and the TGI [23] was 22.5 µM. For the same molecule, the TGI [24] was 37.4 µM, the TGI [25] was 35.2 µM and the GI50 [26] was 3.02 µM. The TGI [26] was 11.7 µM, the TGI [27] was 7.14 µM and the TGI [28] was 25.3 µM. It also gave a TGI [29] of 26.1 µM, a TGI [30] of 35.2 µM and a TGI [31] of 26.1 µM. The TGI [32] was 31.2 µM, the TGI [33] was 28 µM and the GI50 [34] was 5.27 µM. For the same molecule, the TGI [34] was 19.9 µM, the TGI [35] was 61 µM and the TGI [36] was 31.8 µM. For the same molecule, the TGI [37] was 40.7 µM, the TGI [38] was 28.6 µM and the TGI [39] was 26 µM. The TGI [40] was 20.9 µM, the TGI [41] was 36.2 µM and the TGI [42] was 7.57 µM. It also gave a GI50 [43] of 7.6 µM, a TGI [43] of 22.4 µM and a TGI [44] of 32.7 µM. It also gave a TGI [45] of 30.2 µM, a TGI [46] of 19.3 µM and a TGI [47] of 35 µM. For the same molecule, the TGI [48] was 30 µM, the TGI [49] was 24.4 µM and the TGI [50] was 24.8 µM. It also gave a TGI [51] of 6.94 µM, a TGI [52] of 23.6 µM and a TGI [53] of 89.5 µM. It also gave a TGI [54] of 9.68 µM, a TGI [55] of 22.2 µM and a TGI [56] of 30.5 µM. The GI50 [57] was 11 µM, the TGI [57] was 24.7 µM and the TGI [58] was 27.4 µM.
`COc1ccc2nc3cc(Cl)ccc3c(Nc3ccc(O)c(CN4CCN(C)CC4)c3)c2c1` gave a TGI [1] of 3 µM, a TGI [2] of 8.68 µM and a TGI [3] of 3.47 µM. The TGI [4] was 3 µM, the TGI [59] was 38.6 µM and the TGI [5] was 3.98 µM. For the same molecule, the TGI [7] was 3.04 µM, the TGI [8] was 3.73 µM and the TGI [9] was 3.52 µM. The TGI [10] was 2.42 µM, the TGI [11] was 3.74 µM and the TGI [12] was 5.68 µM. The TGI [13] was 3.57 µM, the TGI [14] was 4.07 µM and the TGI [16] was 4.65 µM. The TGI [17] was 3.54 µM, the TGI [18] was 3.3 µM and the TGI [19] was 3.71 µM. The TGI [20] was 3.85 µM, the TGI [22] was 3.53 µM and the TGI [23] was 3.21 µM. The TGI [24] was 3.12 µM, the TGI [25] was 2.99 µM and the TGI [26] was 3 µM. It also gave a TGI [27] of 3.21 µM, a TGI [28] of 4.94 µM and a TGI [29] of 38.9 µM. For the same molecule, the TGI [31] was 3.22 µM, the TGI [32] was 3.33 µM and the TGI [34] was 3.76 µM. The TGI [35] was 3.19 µM, the TGI [36] was 5.34 µM and the TGI [37] was 3.56 µM. It also gave a TGI [38] of 3.22 µM, a TGI [39] of 4.85 µM and a TGI [40] of 3.22 µM. The TGI [41] was 6.42 µM, the TGI [42] was 3.81 µM and the TGI [43] was 3.22 µM. For the same molecule, the TGI [44] was 3.29 µM, the TGI [45] was 3.62 µM and the TGI [46] was 3.11 µM. The TGI [47] was 11.1 µM, the TGI [48] was 3.93 µM and the TGI [49] was 5.96 µM. For the same molecule, the TGI [50] was 3.91 µM, the TGI [52] was 5.1 µM and the TGI [53] was 4.48 µM. The TGI [54] was 3.79 µM, the TGI [55] was 3.15 µM and the TGI [56] was 3.45 µM. For the same molecule, the TGI [57] was 3.07 µM and the TGI [58] was 3.31 µM.
With `NNC(=O)c1n[nH]n(N)c1=S` the TGI [1] was > 100 µM, the TGI [2] was > 100 µM and the TGI [3] was > 100 µM. For the same molecule, the TGI [4] was > 100 µM, the TGI [59] was > 100 µM and the TGI [5] was > 100 µM. The TGI [6] was > 100 µM, the TGI [7] was > 100 µM and the TGI [8] was > 100 µM. The TGI [9] was > 100 µM, the TGI [10] was > 100 µM and the TGI [11] was > 100 µM. The TGI [12] was > 100 µM, the TGI [14] was > 100 µM and the TGI [16] was > 100 µM. For the same molecule, the TGI [17] was > 100 µM, the TGI [18] was > 100 µM and the TGI [19] was > 100 µM. For the same molecule, the TGI [20] was > 100 µM, the TGI [21] was > 100 µM and the TGI [22] was > 100 µM. For the same molecule, the TGI [23] was > 100 µM, the TGI [25] was > 100 µM and the TGI [26] was > 100 µM. The TGI [27] was > 100 µM, the TGI [28] was > 100 µM and the TGI [29] was > 100 µM. The TGI [30] was > 100 µM, the TGI [31] was > 100 µM and the TGI [32] was > 100 µM. For the same molecule, the TGI [33] was > 100 µM, the TGI [34] was > 100 µM and the TGI [35] was > 100 µM. For the same molecule, the TGI [36] was > 100 µM, the TGI [37] was > 100 µM and the TGI [38] was > 100 µM. The TGI [39] was > 100 µM, the TGI [40] was > 100 µM and the TGI [41] was > 100 µM. The TGI [42] was > 100 µM, the TGI [43] was > 100 µM and the TGI [44] was > 100 µM. For the same molecule, the TGI [45] was > 100 µM, the TGI [46] was > 100 µM and the TGI [47] was > 100 µM. The TGI [48] was > 100 µM, the TGI [50] was > 100 µM and the TGI [52] was > 100 µM. For the same molecule, the TGI [53] was > 100 µM, the TGI [54] was > 100 µM and the TGI [55] was > 100 µM. The TGI [56] was > 100 µM, the TGI [57] was > 100 µM and the TGI [58] was > 100 µM.
